# Reference: US11845751B2, “Triazolotriazine derivatives as A2A receptor antagonists” (ZHEJIANG VIMGREEN PHARMACEUTICALS, LTD., priority 2018, dated 2023)
# Target: T1, A2AR (hADORA2A-HEK293 cells) (Homo sapiens, UniProt P29274)
# T1 construct: expressed in transfected cells; host or cells: HEK293 (hADORA2A-HEK293)
# Experiment: functional cAMP production assay: NECA stimulation of cAMP production and its inhibition by A2AR antagonists
# Type: cell-based
# Details: A2AR-expressing HEK293 cells (hADORA2A-HEK293); NECA at EC80; TR-FRET cAMP readout; read-out: A2AR Potency (IC50, inhibition of NECA-stimulated cAMP production)
# Method: The antagonistic activities of the triazolotriazine derivatives of the present invention were measured in a functional cAMP production assay. The assay consists of NECA stimulation of cAMP production and its inhibition by A2AR antagonists in A2AR-expressing HEK293 cells (hADORA2A-HEK293). All cells were cultured in complete medium at 37° C. in 5% CO2. The cells were detached with pancreatin and collected at 200 g for 5 min. After resuspending the cells in fresh complete medium, the cell viability is counted using the trypan blue exclusion method. […] After the cells were diluted with Hank's buffered saline solution containing HEPES (5 mM), BSA stabilizer (0.1%) and […] Rolipram (10 μM), cells were loaded into white opaque 384-well plates (˜500 cells/well, 10 μl/well) and incubated with test compound at a suitable concentration range (11 concentrations) for 20 min at room temperature. Then the A2A receptor agonist NECA (final concentration=EC80, which was determined in the same experiment slightly earlier) was added to the sample and the mixture was incubated again for 30 min at 37° C. […] The inhibition rate (%) was calculated according to the following formula. The IC50 values were calculated from concentration-inhibition (%) curves after log transformation.
# T1 sequence (P29274 whole entry): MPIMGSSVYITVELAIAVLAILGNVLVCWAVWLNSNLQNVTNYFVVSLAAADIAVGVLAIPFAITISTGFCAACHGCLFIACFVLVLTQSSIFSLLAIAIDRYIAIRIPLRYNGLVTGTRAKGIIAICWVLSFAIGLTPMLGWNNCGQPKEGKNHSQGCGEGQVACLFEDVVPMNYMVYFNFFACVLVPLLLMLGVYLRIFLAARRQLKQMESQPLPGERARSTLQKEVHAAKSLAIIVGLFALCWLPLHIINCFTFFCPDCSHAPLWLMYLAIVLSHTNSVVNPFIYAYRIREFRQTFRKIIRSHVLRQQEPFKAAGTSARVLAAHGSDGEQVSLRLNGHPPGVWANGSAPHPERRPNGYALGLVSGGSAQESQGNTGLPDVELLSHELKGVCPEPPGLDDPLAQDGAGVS
row,IC50,Structure (SMILES)
1,25.3 nM,"CN(C)[C@H]1CCN(CCOc2ccc(CCNc3nc(N)n4nc(-c5ccco5)nc4n3)cc2)C1 [Example 154, (S)-N5-(4-(2-(3-(Dimethylamino)pyrrolidin-1-yl)ethoxy)phenethyl)-2-(furan-2-yl)-[1,2,4]triazolo[1,5-a][1,3,5]triazine-5,7-diamine]"
2,17.5 nM,"CN(C)C1CN(CCOc2ccc(CCNc3nc(N)n4nc(-c5ccco5)nc4n3)cc2)C1 [Example 162, N5-(4-(2-(3-(Dimethylamino)azetidin-1-yl)ethoxy)phenethyl)-2-(furan-2-yl)-[1,2,4]triazolo[1,5-a][1,3,5]triazine-5,7-diamine]"
3,8.96 nM,"Nc1nc(NCCc2ccc(OCC(F)(F)F)cc2)nc2nc(-c3ccco3)nn12 [Example 207, N5-(4-(2,2,2-Trifluoroethoxy)phenethyl)-2-(furan-2-yl)-[1,2,4]triazolo[1,5-a][1,3,5]triazine-5,7-diamine]"
4,35.2 nM,"CN(C)[C@@H]1CCN(CCOc2ccc(CCNc3nc(N)n4nc(-c5ccco5)nc4n3)cc2)C1 [Example 214, N5-((R)-4-(2-(3-(Dimethylamino)pyrrolidin-1-yl)ethoxy)phenethyl)-2-(furan-2-yl)-[1,2,4]triazolo[1,5-a][1,3,5]triazine-5,7-diamine]"
5,20 nM,"Nc1nc(NCCc2ccc(NC(=O)CCN3CCCC3)cc2)nc2nc(-c3ccco3)nn12 [Example 226, N-(4-(2-((7-Amino-2-(furan-2-yl)-[1,2,4]triazolo[1,5-a][1,3,5]triazin-5-yl)amino)ethyl)-phenyl)-3-(pyrrolidin-1-yl)propanamide]"
6,25.3 nM,"CN1CCN(CCC(=O)Nc2ccc(CCNc3nc(N)n4nc(-c5ccco5)nc4n3)cc2)CC1 [Example 229, N-(4-(2-((7-Amino-2-(furan-2-yl)-[1,2,4]triazolo[1,5-a][1,3,5]triazin-5-yl)amino)ethyl)-phenyl)-3-(4-methylpiperazin-1-yl)propanamide]"
7,11.2 nM,"CN1CCC(C(=O)Nc2ccc(CCNc3nc(N)n4nc(-c5ccco5)nc4n3)cc2)CC1 [Example 241, N-(4-(2-((7-Amino-2-(furan-2-yl)-[1,2,4]triazolo[1,5-a][1,3,5]triazin-5-yl)amino)ethyl)-phenyl)-1-methylpiperidine-4-carboxamide]"
8,10.1 nM,"Nc1nc(NCCc2ccc(OCCOCCF)cc2)nc2nc(-c3ccco3)nn12 [Example 245, N5-(4-(2-(2-Fluoroethoxy)ethoxy)phenethyl)-2-(furan-2-yl)-[1,2,4]triazolo[1,5-a][1,3,5]triazine-5,7-diamine]"
9,19.6 nM,"CN(C)CCNc1ccc(CCNc2nc(N)n3nc(-c4ccco4)nc3n2)cc1 [Example 254, N5-(4-((2-(Dimethylamino)ethyl)amino)phenethyl)-2-(furan-2-yl)-[1,2,4]triazolo[1,5-a][1,3,5]triazine-5,7-diamine]"
10,17.5 nM,"Nc1nc(NCCc2ccc(NC(=O)Cc3ccncc3)cc2)nc2nc(-c3ccco3)nn12 [Example 276, N-(4-(2-((7-Amino-2-(furan-2-yl)-[1,2,4]triazolo[1,5-a][1,3,5]triazin-5-yl)amino)ethyl)-phenyl)-2-(pyridin-4-yl)acetamide]"
11,32.3 nM,"CN(CCOc1ccc(CCNc2nc(N)n3nc(-c4ccco4)nc3n2)cc1)Cc1cccnc1 [Example 284, 2-(Furan-2-yl)-N5-(4-(2-(methyl(pyridin-3-ylmethyl)amino)ethoxy)phenethyl)-[1,2,4]triazolo[1,5-a][1,3,5]triazine-5,7-diamine]"
12,33 nM,"CN1CCCN(CCOc2ccc(CCNc3nc(N)n4nc(-c5ccco5)nc4n3)cc2)CC1 [Example 286, 2-(Furan-2-yl)-N5-(4-(2-(4-methyl-1,4-diazepan-1-yl)ethoxy)phenethyl)-[1,2,4]triazolo[1,5-a][1,3,5]triazine-5,7-diamine]"
13,12.7 nM,"Nc1nc(NCCc2ccccn2)nc2nc(-c3ccco3)nn12 [Example 302, 2-(Furan-2-yl)-N5-(2-(pyridin-2-yl)ethyl)-[1,2,4]triazolo[1,5-a][1,3,5]triazine-5,7-diamine]"
14,163 nM,"CN(C)Cc1ccc(CCNc2nc(N)n3nc(-c4ccco4)nc3n2)cc1 [Example 306, N5-(4-((Dimethylamino)methyl)phenethyl)-2-(furan-2-yl)-[1,2,4]triazolo[1,5-a][1,3,5]triazine-5,7-diamine]"
15,30.4 nM,"Nc1nc(NCCc2ccc(OCCN3CC[C@@H](F)C3)cc2)nc2nc(-c3ccco3)nn12 [Example 309, (R)-N5-(4-(2-(3-Fluoropyrrolidin-1-yl)ethoxy)phenethyl)-2-(furan-2-yl)-[1,2,4]triazolo[1,5-a][1,3,5]triazine-5,7-diamine]"
16,13.8 nM,"Nc1nc(NCCc2ccc(NC(=O)CCN3CCC3)cc2)nc2nc(-c3ccco3)nn12 [Example 313, N-(4-(2-((7-Amino-2-(furan-2-yl)-[1,2,4]triazolo[1,5-a][1,3,5]triazin-5-yl)amino)ethyl)-phenyl)-3-(azetidin-1-yl)propanamide]"
17,15.4 nM,"Nc1nc(NCCc2ccc(OCCOCC(F)(F)F)cc2)nc2nc(-c3ccco3)nn12 [Example 314, 2-(Furan-2-yl)-N5-(4-(2-(2,2,2-trifluoroethoxy)ethoxy)phenethyl)-[1,2,4]triazolo[1,5-a][1,3,5]triazine-5,7-diamine]"
18,11.1 nM,"Nc1nc(NCCc2ccc(NCCN3CCOCC3)cc2)nc2nc(-c3ccco3)nn12 [Example 318, 2-(Furan-2-yl)-N5-(4-((2-morpholinoethyl)amino)phenethyl)-[1,2,4]triazolo[1,5-a][1,3,5]triazine-5,7-diamine]"
19,11.5 nM,"Nc1nc(NCCc2ccc(NC(=O)CN3CCOCC3)cc2)nc2nc(-c3ccco3)nn12 [Example 320, N-(4-(2-((7-Amino-2-(furan-2-yl)-[1,2,4]triazolo[1,5-a][1,3,5]triazin-5-yl)amino)ethyl)-phenyl)-2-morpholinoacetamide]"
20,40.7 nM,"CN1CCN(CC(=O)Nc2ccc(CCNc3nc(N)n4nc(-c5ccco5)nc4n3)cc2)CC1 [Example 321, N-(4-(2-((7-Amino-2-(furan-2-yl)-[1,2,4]triazolo[1,5-a][1,3,5]triazin-5-yl)amino)ethyl)-phenyl)-2-(4-methylpiperazin-1-yl)acetamide]"
21,10.8 nM,"CC(C)(C)C(=O)Nc1ccc(CCNc2nc(N)n3nc(-c4ccco4)nc3n2)cc1 [Example 324, N-(4-(2-((7-Amino-2-(furan-2-yl)-[1,2,4]triazolo[1,5-a][1,3,5]triazin-5-yl)amino)ethyl)-phenyl)pivalamide]"
22,11.9 nM,"CC(C)(CO)C(=O)Nc1ccc(CCNc2nc(N)n3nc(-c4ccco4)nc3n2)cc1 [Example 325, N-(4-(2-((7-Amino-2-(furan-2-yl)-[1,2,4]triazolo[1,5-a][1,3,5]triazin-5-yl)amino)ethyl)-phenyl)-3-hydroxy-2,2-dimethylpropanamide]"
23,10.7 nM,"CC(C)(O)C(=O)Nc1ccc(CCNc2nc(N)n3nc(-c4ccco4)nc3n2)cc1 [Example 326, N-(4-(2-((7-Amino-2-(furan-2-yl)-[1,2,4]triazolo[1,5-a][1,3,5]triazin-5-yl)amino)ethyl)-phenyl)-2-hydroxy-2-methylpropanamide]"
